Measurements reported in US20250228836A1, “BILASTINE COMPOSITION FOR ONCE-DAILY PARENTERAL ADMINISTRATION” (FAES FARMA, S.A., priority 2022, published 2025).
Converted amounts (≈) assume the structure as drawn.

Experiments:
[1] = Solubility of bilastine vs. HPβCD concentration and pH; assay type: physicochemical; settings: aqueous HPβCD solution, thermodynamic from solid
Protocol: The concentration of bilastine in the solubility tests was determined by UV/vis spectrophotometer was a Cary® 60 UV-VIS.
The solubility of bilastine was determined at different concentrations of HPβCD and pH values.
The desired amount of HPβCD was dispersed in 40 ml of purified water in a 50 ml flask until complete dissolution and further diluted with water up to a final volume of 50 ml. Each solution was divided into three solutions (15 ml each) and the pH was adjusted with HCl 37% to the desired values (3, 5 or 7, respectively). Each solution was transferred again into three vials (5 mL solution each) in order to have several replicates for each sample. Bilastine was added in excess to each vial and the solutions were kept under magnetic stirring for 24 hours. After that time, the pH was adjusted again and they were kept stirring for another 24 hours. Finally, the samples were filtered through 0.45 μm filters (Biofil®, Nylon membrane, 13 mm Ø), the final pH was checked and the concentration was determined by UV spectrophotometry at a wavelength of 254 nm. The statistical analysis of the results was carried out using the Centurion XVI Statgraphics program version 16.1.15.

[2] = pH 5-8; cited from earlier work

solubility at 48 h ([1]; aqueous with cosolvent or surfactant or cyclodextrin, Entry 3: HPβCD 30 % w/v, final pH 4.14): 37.8 mg/mL (≈ 81.5 mM) | solubility at 48 h ([1]; aqueous with cosolvent or surfactant or cyclodextrin, Entry 4: HPβCD 20 % w/v, final pH 5.16): 18.4 mg/mL (≈ 39.6 mM) | solubility at 48 h ([1]; aqueous with cosolvent or surfactant or cyclodextrin, Entry 5: HPβCD 30 % w/v, final pH 5.13): 27.2 mg/mL (≈ 58.7 mM) | solubility at 48 h ([1]; aqueous with cosolvent or surfactant or cyclodextrin, Entry 6: HPβCD 30 % w/v, final pH 7.15): 16.9 mg/mL (≈ 36.5 mM) | solubility at 48 h ([1]; pH 4.6, aqueous with cosolvent or surfactant or cyclodextrin, Entry 2: HPβCD 20 % w/v, final pH 4.60): 35.1 mg/mL (≈ 75.7 mM) | solubility at 48 h ([1]; pH 4.7, aqueous with cosolvent or surfactant or cyclodextrin, Entry 1: HPβCD 10 % w/v, final pH 4.70): 18.3 mg/mL (≈ 39.4 mM)
SMILES: CCOCCn1c(C2CCN(CCc3ccc(C(C)(C)C(=O)O)cc3)CC2)nc2ccccc21 [Bilastine, 2-[4-(2-{4-[1-(2-ethoxyethyl)-1H-benzimidazol-2-yl]-1-piperidinyl}ethyl)phenyl]-2-methylpropanoic acid]
water solubility of bilastine [2]: about 0.5 mg/ml
